# From US8598339B2, “Withanolide isolated from Physalis longifolia and analogs and methods of use thereof” (University of Kansas, priority 2011, dated 2013)
# Tests used:
# melanoma cells B16F10 = assay: MTS cell viability assay, B16F10; format: cell-based; conditions: Mus musculus; for IC50: B16-F10, Table 1, 72-hour treatment; for IC90: B16-F10, Table 2
# In short: (§1)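 JMAR and MDA1986 head and neck SCC cells and B16F10 melanoma cells grown in DMEM with 10% heat-inactivated FBS at 37 °C, 5% CO2, seeded at 1-2×10^4 cells/mL. Viability measured by MTS after 72-hour compound treatment, 3-hour reagent incubation, formazan absorbance at 490 nm.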
# [1] = tested on: human melanoma SKMEL28 cells; assay: MTS cell viability assay, SKMEL28; format: cell-based; conditions: Homo sapiens; for IC50: SK-MEL-28, 72 h; for IC90: SK-MEL-28, Table 2
# In short: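 SKMEL28 melanoma cells in DMEM with 10% heat-inactivated FBS were seeded at 1-2×10^4 cells/mL and exposed to withanolides for 72 h. Viability was measured by MTS reagent, incubated 3 h at 37 °C, with formazan absorbance read at 490 nm.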
# [2] = tested on: squamous cell carcinoma of head and neck cells MDA1986; assay: MTS cell viability assay, MDA1986; format: cell-based; conditions: Table 1, 72-hour treatment
# In short: as §1
# [3] = tested on: squamous cell carcinoma of head and neck cells JMAR; assay: MTS cell viability assay, JMAR; format: cell-based; conditions: for IC50: Table 1, 72-hour treatment; for IC90: Table 2
# In short: as §1
# [4] = tested on: human carcinoid cells NCI-H727; assay: MTS cell viability assay, NCI-H727; format: cell-based; conditions: Table 1, NCI-H727, 72-hour treatment, read-out: IC50
# Experimental: (§2) Human carcinoid cells, NCI-H727 (ATCC, Manassas, Va.), were cultured under standard conditions. Squamous cell carcinoma of head and neck cells, MDA1986 (Myers, et al. (2002) Clin. Cancer Res. 8:293) and JMAR (Swan, et al. (2003) Oral Oncol. 39:648-55); and melanoma cells lines B16F10 (ATCC, Manassas, Va.) and SKMEL28 (CLS, Eppelheim, Germany) were cultured in DMEM medium supplemented with 10% heat-inactivated fetal bovine serum (Sigma-Aldrich, St. Louis, Mo.), 1×MEM-essential amino acid, 1×MEM vitamin, and penicillin/streptomycin (Sigma-Aldrich, St. Louis, Mo.) in a humid environment of 5% CO2 at 37° C. Activity of withanolides against DRO81-1 and TT medullary thyroid cancer cells was also determined.
# (§3) Cells were cultured in 96 well plates at a concentration of 1-2×10^4 cells/mL. Cell viability was assessed with the nonradioactive cell proliferation MTS assay using Cell Titer 96AQUEOUS One Solution Reagent (PROMEGA, Madison, Wis.), according to the manufacturer's instruction. After a 72-hour treatment, 20 μL of Cell Titer 96AQUEOUS One Solution Reagent were added to each well and incubated for 3 hours at 37° C. 5% CO2, and formazan absorbance was measured at 490 nm.
# MRC-5 = assay: MTS cell viability assay, MRC-5; format: cell-based; conditions: Homo sapiens, MRC5, Table 1, 72-hour treatment
# [5] = tested on: DRO81-1 medullary thyroid cancer cells; assay: MTS cell viability assay, DRO81-1; format: cell-based; conditions: Table 1; DRO81-1; 72-hour treatment; read-out: IC50
# Experimental: as §2, §3
# DRO81-1 cells = assay: Annexin V/PI staining and flow cytometry, DRO81-1; format: cell-based; conditions: 24-hour exposure
# UMSCC-2 HNSCC cells = assay: Annexin V/PI staining and flow cytometry, UMSCC-2; format: cell-based
# Experimental: In similar analysis with X003, 50% of UMSCC-2 HNSCC cells underwent apoptosis (early and late) at 1 μM, while 90% of cells underwent apoptosis at 3 μM. Apoptosis with 1 μM X003 was confirmed with PARP cleavage and caspase 3 activation in NCI-H727 cells.
# SUP-B15 Ph+ ALL cells = assay: MTS assay, SUP-B15; format: cell-based; conditions: for IC50: Homo sapiens, SUP-B15
# Experimental: (§4) Cell proliferation was analyzed using MTS assay and Trypan Blue exclusion. Annexin V-FITC/Propidium Iodide flow cytometry was used to analyze the induction of apoptosis in SUP-B15 cells after treatment with anolides. Cell cycle analysis was performed using propidium iodide flow cytometry. Modulation of BCR-ABL and downstream effector proteins was determined by western blot analysis. Syngery between withanolides and TKIs was evaluated using MTS viability to calculate combination indices. Apoptotic synergy was evaluated using Annexin V/PI.
# normal MRC-5 fibroblasts = assay: MTS assay, normal MRC-5 fibroblasts (Example 7); format: cell-based; conditions: Homo sapiens, MRC5
# Experimental: as §4
# SUP-B15 cells [6] = assay: Trypan blue exclusion assay, SUP-B15; format: cell-based; conditions: 5×, 2×, 1×, 0.5×IC50
# Experimental: as §4, with “Syngery” left out
# SUP-B15 cells [7] = assay: Annexin V/propidium iodide apoptosis, SUP-B15; format: cell-based; conditions: 48 hour; approximately 10×IC50 (Withaferin A, X001), 4×IC50 (X003)
# Experimental: as §4
# At no concentrations was the population of cells in necrosis significant.
# SUP-B15 cells [8] = assay: Cell cycle analysis by PI flow cytometry, SUP-B15; format: cell-based
# Experimental: as §4
# SUP-B15 Ph+ALL cells = assay: Combination with imatinib, MTS viability, SUP-B15; format: cell-based; conditions: 16 combinations
# Experimental: as §4
# [9] = tested on: HCC1937 (BRCA-1 mutant) cells; assay: MTS assay, HCC1937; format: cell-based
# Experimental: Cell proliferation was analyzed using MTS assay.
# HS766T = assay: Pancreatic cancer cell viability, HS766T; format: cell-based; conditions: read-out: IC50
# Experimental: (§5) The activity of the withanolides of this invention were tested in pancreatic cancer cells. […] Moreover, IC50 values were determined for these compounds (Table 14).
# Mia PaCa-2 = assay: Pancreatic cancer cell viability, Mia PaCa-2; format: cell-based; conditions: Homo sapiens, MIA PaCa2, read-out: IC50
# Experimental: as §5
# Ames test strain TA98 = assay: Ames test, TA98
# [10] = Table 3, treated for 72 hours, NA = no activity
smiles,measurement,setting,value
CC1=C(CO)C(=O)O[C@@H]([C@@H](C)C2CC[C@H]3[C@@H]4C[C@H]5O[C@]56[C@@H](O)C=CC(=O)[C@]6(CO)[C@H]4CC[C@]23C)C1 (stereo partly shown) [Compound X001],IC50,melanoma cells B16F10,920 nM
same,IC90,melanoma cells B16F10,2640 nM
same,IC50,"[1]; Table 1, 72-hour treatment",5060 nM
same,IC50,[1]; [10],4710 nM
same,IC90,[1],2140 nM
same,IC50,[2],3340 nM
same,IC50,[3],5320 nM
same,IC90,[3],4900 nM
same,IC50,[4],1680 nM
same,IC50,MRC-5,12700 nM
same,IC50,[5],2290 nM
same,induction of apoptosis,DRO81-1 cells; 5 μM,apoptosis was induced
same,cells gated toward late apoptosis,DRO81-1 cells; 10 μM,65%
same,cells undergoing apoptosis (early and late),"UMSCC-2 HNSCC cells; 5 μM, 24-hour exposure, HNSCC cells",18%
same,IC50,SUP-B15 Ph+ ALL cells,350 nM
same,IC50,normal MRC-5 fibroblasts,8200 nM
same,"cell death at 24 hours, trypan blue exclusion",SUP-B15 cells [6],caused death at 24 hours with 2× and 5×IC50 values
same,induction of apoptosis,SUP-B15 cells [7],almost all cells were in either late or early apoptosis
same,Cell Cycle (%) G0/G1,"SUP-B15 cells [8]; 200 nM, 48 hour treatment",53.1%
same,Cell Cycle (%) G2/M,"SUP-B15 cells [8]; 200 nM, 48 hour treatment",26.4%
same,Cell Cycle (%) S,"SUP-B15 cells [8]; 200 nM, 48 hour treatment",19.5%
same,Cell Cycle (%) G0/G1,"SUP-B15 cells [8]; 400 nM, 48 hour treatment",54.6%
same,Cell Cycle (%) G2/M,"SUP-B15 cells [8]; 400 nM, 48 hour treatment",27.1%
same,Cell Cycle (%) S,"SUP-B15 cells [8]; 400 nM, 48 hour treatment",18.3%
same,Cell Cycle (%) G0/G1,"SUP-B15 cells [8]; 800 nM, 48 hour treatment",47.5%
same,Cell Cycle (%) G2/M,"SUP-B15 cells [8]; 800 nM, 48 hour treatment",42.2%
same,Cell Cycle (%) S,"SUP-B15 cells [8]; 800 nM, 48 hour treatment",10.3%
same,Cell Cycle (%) G0/G1,"SUP-B15 cells [8]; 1600 nM, 48 hour treatment",39.9%
same,Cell Cycle (%) G2/M,"SUP-B15 cells [8]; 1600 nM, 48 hour treatment",44.5%
same,Cell Cycle (%) S,"SUP-B15 cells [8]; 1600 nM, 48 hour treatment",15.7%
same,Cell Cycle (%) G0/G1,"SUP-B15 cells [8]; 3200 nM, 48 hour treatment",49.9%
same,Cell Cycle (%) G2/M,"SUP-B15 cells [8]; 3200 nM, 48 hour treatment",31.5%
same,Cell Cycle (%) S,"SUP-B15 cells [8]; 3200 nM, 48 hour treatment",18.6%
same,synergy with imatinib,SUP-B15 Ph+ALL cells,showed synergy at all concentrations tested
same,Log ECF,[9],0.71
same,IC50,HS766T,1300 nM
same,IC50,Mia PaCa-2,800 nM
same,Positive Significance (− to +++),"Ames test strain TA98; 1.0E−04 M, TA98 +S9",−
same,Positive Significance (− to +++),"Ames test strain TA98; 1.0E−04 M, TA98 −S9",−
same,Positive Significance (− to +++),"Ames test strain TA98; 1.0E−05 M, TA98 +S9",−
same,Positive Significance (− to +++),"Ames test strain TA98; 1.0E−05 M, TA98 −S9",−
same,Positive Significance (− to +++),"Ames test strain TA98; 5.0E−05 M, TA98 +S9",−
same,Positive Significance (− to +++),"Ames test strain TA98; 5.0E−05 M, TA98 −S9",−
same,Positive Significance (− to +++),"Ames test strain TA98; 5.0E−06 M, TA98 +S9",−
same,Positive Significance (− to +++),"Ames test strain TA98; 5.0E−06 M, TA98 −S9",−
"CC(=O)OCC1=C(C)C[C@H]([C@@H](C)C2CC[C@H]3[C@@H]4C[C@H]5O[C@]56[C@@H](OC(C)=O)C=CC(=O)[C@]6(COC(C)=O)[C@H]4CC[C@]23C)OC1=O (stereo partly shown) [Compound X003, 4,19,27-triacetyl X001]",IC50,melanoma cells B16F10,67 nM
same,IC90,melanoma cells B16F10,330 nM
same,IC50,"[1]; Table 1, 72-hour treatment",540 nM
same,IC50,[1]; [10],221 nM
same,IC90,[1],360 nM
same,IC50,[2],910 nM
same,IC50,[3],160 nM
same,IC90,[3],1300 nM
same,IC50,[4],320 nM
same,IC50,MRC-5,580 nM
same,IC50,[5],340 nM
same,cells undergoing apoptosis (early and late),"UMSCC-2 HNSCC cells; 1 μM, UMSCC-2",50%
same,cells undergoing apoptosis,"UMSCC-2 HNSCC cells; 3 μM, UMSCC-2",90%
same,IC50,SUP-B15 Ph+ ALL cells,48 nM
same,Fold Difference,SUP-B15 Ph+ ALL cells; MRC-5 vs SUP-B15 IC50,31X
same,IC50,normal MRC-5 fibroblasts,1500 nM
same,"cell death at 24 hours, trypan blue exclusion",SUP-B15 cells [6],significant cell death at 24 hours at IC50 values
same,induction of apoptosis,SUP-B15 cells [7],almost all cells were in either late or early apoptosis
same,Cell Cycle (%) G0/G1,SUP-B15 cells [8]; 15 nM,57.4%
same,Cell Cycle (%) G2/M,SUP-B15 cells [8]; 15 nM,20.7%
same,Cell Cycle (%) S,SUP-B15 cells [8]; 15 nM,21.9%
same,Cell Cycle (%) G0/G1,SUP-B15 cells [8]; 30 nM,66.4%
same,Cell Cycle (%) G2/M,SUP-B15 cells [8]; 30 nM,24%
same,Cell Cycle (%) S,SUP-B15 cells [8]; 30 nM,9.5%
same,Cell Cycle (%) G0/G1,SUP-B15 cells [8]; 60 nM,62.5%
same,Cell Cycle (%) G2/M,SUP-B15 cells [8]; 60 nM,22.2%
same,Cell Cycle (%) S,SUP-B15 cells [8]; 60 nM,15.3%
same,Cell Cycle (%) G0/G1,SUP-B15 cells [8]; 120 nM,52.6%
same,Cell Cycle (%) G2/M,SUP-B15 cells [8]; 120 nM,30%
same,Cell Cycle (%) S,SUP-B15 cells [8]; 120 nM,17.4%
same,combination index (CI) with imatinib,SUP-B15 Ph+ALL cells; 0.25×-1×IC50 of each drug,0.136
same,synergy with imatinib,SUP-B15 Ph+ALL cells,showed synergy at all concentrations tested
same,IC50,HS766T,400 nM
same,IC50,Mia PaCa-2,350 nM
